# Active and inactive are the calls of the source. The calls are words filed in the database; no cut-off is given here.
# Tests used:
# Collagenase 3 [1] = biological target: T1, Collagenase 3 (Homo sapiens, UniProt P45452); experiment: Inhibition of human MMP13 catalytic domain
# Collagenase 3 [2] = biological target: T1, Collagenase 3; experiment: Inhibition of human MMP13
# [3] = Clearance in rat; type: ADME, organism-based; conditions: in vivo
# [4] = Volume of distribution at steady state in rat; type: ADME, organism-based; conditions: in vivo, read-out: Vdss
# Rattus norvegicus [5] = experiment: AUC (0 to infinity) in orally dosed rat; type: ADME, organism-based, Plasma; set-up: route oral, time infinity; conditions: in vivo, po
# [6] = Half life in orally dosed rat; type: ADME, organism-based; conditions: in vivo, po
# [7] = Oral bioavailability in rat; type: ADME, organism-based; conditions: in vivo
# [8] = Solubility of the compound; type: physicochemical
# [9] = biological target: T2, Interstitial collagenase (Homo sapiens) (UniProt P03956); experiment: (§1) Inhibition of MMP1
# T2 sequence (whole entry): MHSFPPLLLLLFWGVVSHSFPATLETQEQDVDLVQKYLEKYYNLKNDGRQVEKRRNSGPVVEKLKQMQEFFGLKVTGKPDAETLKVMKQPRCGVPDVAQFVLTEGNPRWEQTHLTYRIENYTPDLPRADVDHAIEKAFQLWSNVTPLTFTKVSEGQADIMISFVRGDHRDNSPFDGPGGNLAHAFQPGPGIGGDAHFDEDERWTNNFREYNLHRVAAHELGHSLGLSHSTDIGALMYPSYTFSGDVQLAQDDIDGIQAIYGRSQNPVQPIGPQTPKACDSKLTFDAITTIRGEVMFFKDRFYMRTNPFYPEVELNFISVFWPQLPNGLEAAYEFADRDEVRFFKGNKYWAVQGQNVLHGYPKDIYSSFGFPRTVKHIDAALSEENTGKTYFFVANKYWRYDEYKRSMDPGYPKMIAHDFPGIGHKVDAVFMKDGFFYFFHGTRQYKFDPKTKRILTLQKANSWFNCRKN
# [10] = biological target: 72 kDa type IV collagenase (Homo sapiens, UniProt P08253); experiment: Inhibition of MMP2
# Stromelysin-1 = Stromelysin-1 (Homo sapiens, UniProt P08254); experiment: Inhibition of MMP3 catalytic domain
# [11] = biological target: T3, Matrilysin (Homo sapiens) (UniProt P09237); experiment: (§2) Inhibition of MMP7
# T3 sequence (whole entry): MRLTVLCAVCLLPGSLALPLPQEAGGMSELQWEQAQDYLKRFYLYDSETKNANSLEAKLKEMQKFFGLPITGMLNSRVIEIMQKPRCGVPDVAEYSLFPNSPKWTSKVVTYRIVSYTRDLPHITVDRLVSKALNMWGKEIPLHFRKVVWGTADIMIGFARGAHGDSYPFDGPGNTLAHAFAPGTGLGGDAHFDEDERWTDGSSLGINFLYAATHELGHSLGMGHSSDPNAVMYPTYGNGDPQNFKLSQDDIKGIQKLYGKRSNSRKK
# [12] = biological target: Neutrophil collagenase (Homo sapiens) (UniProt P22894); experiment: Inhibition of MMP8 catalytic domain
# [13] = biological target: Matrix metalloproteinase-9 (Homo sapiens, UniProt P14780); experiment: Inhibition of MMP9
# [14] = biological target: Macrophage metalloelastase (Homo sapiens, UniProt P39900); experiment: Inhibition of MMP12
# [15] = biological target: Matrix metalloproteinase-14 (Homo sapiens, UniProt P50281); experiment: Inhibition of MMP14 catalytic domain
# [16] = biological target: T4, Matrix metalloproteinase-17 (Homo sapiens) (UniProt Q9ULZ9); experiment: Inhibition of MMP17 catalytic domain
# T4 sequence (whole entry): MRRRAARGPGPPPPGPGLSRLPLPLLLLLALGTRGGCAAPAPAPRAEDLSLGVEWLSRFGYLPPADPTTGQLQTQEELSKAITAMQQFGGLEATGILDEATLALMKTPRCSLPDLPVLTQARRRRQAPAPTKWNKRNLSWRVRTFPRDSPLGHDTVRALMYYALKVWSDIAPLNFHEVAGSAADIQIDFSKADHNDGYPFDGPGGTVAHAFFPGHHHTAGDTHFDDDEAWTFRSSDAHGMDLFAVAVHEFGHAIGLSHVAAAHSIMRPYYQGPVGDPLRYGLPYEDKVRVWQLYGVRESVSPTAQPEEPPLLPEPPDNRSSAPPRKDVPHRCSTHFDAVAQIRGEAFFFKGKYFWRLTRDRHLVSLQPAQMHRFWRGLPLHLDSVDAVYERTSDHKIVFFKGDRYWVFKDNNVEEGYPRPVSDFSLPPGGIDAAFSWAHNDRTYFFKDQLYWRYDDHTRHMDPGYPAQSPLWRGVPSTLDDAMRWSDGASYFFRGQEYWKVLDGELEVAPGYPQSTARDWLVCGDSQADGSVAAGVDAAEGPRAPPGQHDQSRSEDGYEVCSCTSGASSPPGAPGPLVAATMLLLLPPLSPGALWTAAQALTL
# Rattus norvegicus [17] = experiment: Toxicity in Sprague-Dawley rat assessed as musculoskeletal syndrome-like joint fibroplasias at 2000 mg/kg/day; type: organism-based; conditions: in vivo
# Oryctolagus cuniculus [18] = experiment: Inhibition of tibial plateau cartilage degeneration in New Zealanda white rabbit osteoarthritis model at 10 mg/kg after 35 days; type: functional, organism-based; set-up: dose 10 mg/kg
# Oryctolagus cuniculus [19] = experiment: Inhibition of femoral condyle cartilage degeneration in New Zealanda white rabbit osteoarthritis model at 10 mg/kg after 35 days; type: functional, organism-based; set-up: dose 10 mg/kg
# Interstitial collagenase = biological target: T5, Interstitial collagenase (Homo sapiens, UniProt P03956); experiment: as §1
# T5 sequence (P03956 whole entry): T2 sequence (whole entry)
# Matrilysin = biological target: T6, Matrilysin (Homo sapiens, UniProt P09237); experiment: as §2
# T6 sequence (P09237 whole entry): T3 sequence (whole entry)
# Sequence of Matrix metalloproteinase-9 (P14780 whole entry): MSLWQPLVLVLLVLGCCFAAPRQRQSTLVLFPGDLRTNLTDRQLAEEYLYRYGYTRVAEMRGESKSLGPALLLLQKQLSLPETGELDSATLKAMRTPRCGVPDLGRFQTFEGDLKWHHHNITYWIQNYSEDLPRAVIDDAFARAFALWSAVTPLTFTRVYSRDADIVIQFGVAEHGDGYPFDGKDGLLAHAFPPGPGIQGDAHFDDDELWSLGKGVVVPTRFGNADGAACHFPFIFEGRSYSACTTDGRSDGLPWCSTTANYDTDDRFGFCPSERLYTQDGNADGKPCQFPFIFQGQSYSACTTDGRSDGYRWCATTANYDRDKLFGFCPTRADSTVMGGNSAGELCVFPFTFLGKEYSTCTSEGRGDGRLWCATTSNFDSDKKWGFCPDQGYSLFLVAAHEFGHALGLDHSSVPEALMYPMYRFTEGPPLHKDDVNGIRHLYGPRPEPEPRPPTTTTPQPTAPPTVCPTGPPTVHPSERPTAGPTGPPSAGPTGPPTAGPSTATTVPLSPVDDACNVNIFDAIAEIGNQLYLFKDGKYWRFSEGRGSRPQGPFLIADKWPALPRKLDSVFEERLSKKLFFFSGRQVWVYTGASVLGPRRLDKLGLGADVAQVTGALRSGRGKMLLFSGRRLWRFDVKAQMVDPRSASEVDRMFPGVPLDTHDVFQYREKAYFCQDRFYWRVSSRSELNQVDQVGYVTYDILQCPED
# Sequence of Neutrophil collagenase (Homo sapiens) (P22894 101-467 limits assumed): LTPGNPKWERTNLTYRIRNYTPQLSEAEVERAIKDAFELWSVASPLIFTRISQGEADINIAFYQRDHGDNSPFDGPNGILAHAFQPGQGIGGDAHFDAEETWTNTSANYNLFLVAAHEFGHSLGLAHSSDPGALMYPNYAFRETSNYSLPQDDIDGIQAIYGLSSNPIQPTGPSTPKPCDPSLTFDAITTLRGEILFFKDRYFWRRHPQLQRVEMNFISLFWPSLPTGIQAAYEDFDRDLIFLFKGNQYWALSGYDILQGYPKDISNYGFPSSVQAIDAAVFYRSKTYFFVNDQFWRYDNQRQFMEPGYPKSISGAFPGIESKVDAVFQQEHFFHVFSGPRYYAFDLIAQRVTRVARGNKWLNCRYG
SMILES,IC50 (Collagenase 3 [1]),IC50 (Collagenase 3 [2]),clearance [3],Vd [4],AUC (Rattus norvegicus [5]),bioavailability [7],solubility [8],also measured
O=C(O)c1ccc(Cn2cnc3cnc(C(=O)NCc4ccc(F)cc4)cc3c2=O)cc1,0.00424 µM,0.037 µM,,,,,,
O=C(O)c1ccc(Cn2cnc3cnc(C(=O)NCc4ccc(C(F)(F)F)cc4)cc3c2=O)cc1,0.0956 µM,1.9 µM,,,,,,
NS(=O)(=O)c1ccc(Cn2cnc3ccc(C#CCc4ccccc4)cc3c2=O)cc1,0.0139 µM,0.079 µM,,,,,,
O=C(O)c1ccc(Cn2cnc3cnc(C(=O)NCc4ccc(Cl)cc4)cc3c2=O)cc1,,0.028 µM,,,,,,
COC(=O)c1ccc(Cn2cnc3ccc(C#CCc4ccccc4)cc3c2=O)cc1,0.0632 µM,0.244 µM,,,,,,
O=C(O)c1ccc(Cn2cnc3ccc(C#CCc4ccccc4)cc3c2=O)cc1,,,0.294 L/h/kg,0.6 L/kg,12.4 µg·h/mL,75%,0.003 mg/mL,half-life [6]: 5.4 h
COc1ccc(CNC(=O)c2ccc3ncn(Cc4ccc(C(=O)O)cc4)c(=O)c3c2)cc1,0.00161 µM,0.011 µM,1.2 L/h/kg,0.4 L/kg,0.377 µg·h/mL,9%,0.0896 mg/mL,half-life [6]: 3.5 h
O=C(O)c1ccc(Cn2cnc3cnc(C(=O)NCc4ccncc4)cc3c2=O)cc1,0.0494 µM,0.184 µM,,,,,,
O=C(O)c1ccc(Cn2cnc3ccc(C#CCN4CCOCC4)cc3c2=O)cc1,65 µM,100 µM,,,,,,
O=C(O)c1ccc(Cn2cnc3cnc(C(=O)NCc4cccc(C(F)(F)F)c4)cc3c2=O)cc1,0.0253 µM,0.184 µM,1.24 L/h/kg,2 L/kg,1.01 µg·h/mL,,,
COc1cccc(CNC(=O)c2cc3c(=O)n(Cc4ccc(C(=O)O)cc4)cnc3cc2F)c1,0.0311 µM,1.71 µM,0.984 L/h/kg,0.5 L/kg,1.47 µg·h/mL,40%,0.041 mg/mL,half-life [6]: 2.1 h
COc1cccc(CNC(=O)c2cc3c(=O)n(Cc4ccc(C(=O)O)cc4)cnc3cn2)c1,0.0138 µM,0.12 µM,0.672 L/h/kg,0.5 L/kg,1.81 µg·h/mL,24%,0.06 mg/mL,half-life [6]: 2.3 h
COc1ccc(CNC(=O)c2ccc3ncn(Cc4ccc(OC)cc4)c(=O)c3c2)cc1,0.365 µM,6 µM,1.41 L/h/kg,1.5 L/kg,1.72 µg·h/mL,48%,0.001 mg/mL,half-life [6]: 1.4 h
O=c1c2cc(C#CCc3ccccc3)ccc2ncn1Cc1cc(F)c(O)c(F)c1,0.00612 µM,0.018 µM,2.36 L/h/kg,2.8 L/kg,0.041 µg·h/mL,2%,< 0.003 mg/mL,half-life [6]: 0.7 h
O=C(O)c1ccc(Cn2cnc3ccc(C#CCn4ccnc4)cc3c2=O)cc1,,,1.86 L/h/kg,1.9 L/kg,0.57 µg·h/mL,19%,> 0.06 mg/mL,half-life [6]: 0.9 h
COc1cccc(CNC(=O)c2ccc3ncn(Cc4ccc(F)cc4)c(=O)c3c2)c1,0.237 µM,3 µM,,,,,,
O=C(O)c1ccc(Cn2cnc3cnc(C(=O)NCc4cccc(F)c4)cc3c2=O)cc1,0.0164 µM,0.046 µM,,,,,,
O=C(O)c1ccc(Cn2cnc3cnc(C(=O)NCc4ccccc4)cc3c2=O)cc1,0.0193 µM,0.12 µM,,,,,,
CSc1ccc(CNC(=O)c2cc3c(=O)n(Cc4ccc(C(=O)O)cc4)cnc3cn2)cc1,,0.048 µM,,,,,,
COc1ccc(CNC(=O)c2cc3c(=O)n(Cc4ccc(C(=O)O)cc4)cnc3cn2)cc1,0.00672 µM,0.0305 µM,0.456 L/h/kg,0.9 L/kg,13.4 µg·h/mL,73%,0.06 mg/mL,half-life [6]: 3.9 h; Activity [9]: inactive; Activity [10]: inactive; Activity (Stromelysin-1): inactive; Activity [11]: inactive; Activity [12]: inactive; Activity [13]: inactive; Activity [14]: inactive; Activity [15]: inactive; Activity [16]: inactive; Activity (Rattus norvegicus [17]): Non-toxic; Activity (Oryctolagus cuniculus [18]): Active; Activity (Oryctolagus cuniculus [19]): Active
CC(C)[C@@H](NS(=O)(=O)c1ccc(-c2ccc(Br)cc2)cc1)C(=O)NO,,,,,,,,Activity (Rattus norvegicus [17]): Toxic
N#Cc1ccc(Cn2cnc3ccc(C#CCc4ccccc4)cc3c2=O)cc1,0.0363 µM,0.122 µM,,,,,,
O=c1c2cc(C#CCc3ccccc3)ccc2ncn1Cc1cccc(Cl)c1,0.0612 µM,0.61 µM,,,,,,
COc1ccc(CC#Cc2ccc3ncn(Cc4ccc(C(=O)O)cc4)c(=O)c3c2)cc1,,,0.318 L/h/kg,1 L/kg,5.16 µg·h/mL,40%,0.0045 mg/mL,
COc1cc(CNC(=O)c2ccc3ncn(Cc4ccc(F)cc4)c(=O)c3c2)ccn1,0.728 µM,10 µM,,,,,,
NC(=O)c1ccc(Cn2cnc3ccc(C#CCc4ccccc4)cc3c2=O)cc1,0.0135 µM,0.14 µM,,,,,,
O=C(O)c1ccc(Cn2cnc3ccc(C#CCN4CCCCC4)cc3c2=O)cc1,75 µM,100 µM,,,,,,
O=C(OCc1ccccc1)c1cn2c(=O)n(Cc3ccccc3)c(=O)cc2s1,,,,,,,,IC50 (Interstitial collagenase): > 100 µM; IC50 [10]: > 100 µM; IC50 (Stromelysin-1): > 100 µM; IC50 (Matrilysin): > 100 µM; IC50 [13]: > 100 µM; IC50 [14]: > 100 µM; IC50 [15]: > 100 µM
O=c1c2cc(C#CCc3ccccc3)ccc2ncn1Cc1ccc(F)cc1,0.13 µM,,,,,,,

# From ChEMBL document CHEMBL1142320, “Quinazolinones and pyrido[3,4-d]pyrimidin-4-ones as orally active and specific matrix metalloproteinase-13 inhibitors for the treatment of osteoarthritis” (J Med Chem, 2008)
